A short description of data set [1]: Volume of distribution at steady state in Sprague-Dawley rat at 3 mg/kg administered as single iv bolus by LC-MS/MS analysis. Type of data set: ADME, organism-based. The conditions noted are these: in vivo, read-out: Vdss.
The nature of data set [2]: Drug metabolism in po dosed rat plasma assessed as deethylation by measuring 4-(((1R,6R)-6-amino-2-(4-fluorophenyl)cyclohex-2-enyl)methoxy)-5-chloro-2-fluoro-N-(thiazol-4-yl)benzenesulfonamide metabolite formation. The class given is ADME, organism-based. The conditions noted are these: in vivo.
Data set [3] in a line: Plasma concentration in Sprague-Dawley rat spinal nerve ligation model at 100 mg/kg administered as single dose via oral gavage measured after 2 hrs by LC-MS/MS analysis. Type of data set: ADME, organism-based.
Data set [4] can be described thus: Unbound plasma concentration in Sprague-Dawley rat spinal nerve ligation model at 30 mg/kg administered as single dose via oral gavage measured after 2 hrs by LC-MS/MS analysis. Type of data set: ADME, organism-based. The conditions noted are these: in vivo.
A short description of data set [5]: Unbound plasma concentration in Sprague-Dawley rat spinal nerve ligation model at 100 mg/kg administered as single dose via oral gavage measured after 2 hrs by LC-MS/MS analysis. The conditions noted are these: in vivo. Type of data set: ADME, organism-based.
Data set [6] deals with T1, Cytochrome P450 1A2 (Homo sapiens, UniProt P05177).
T1 sequence (P05177 whole entry): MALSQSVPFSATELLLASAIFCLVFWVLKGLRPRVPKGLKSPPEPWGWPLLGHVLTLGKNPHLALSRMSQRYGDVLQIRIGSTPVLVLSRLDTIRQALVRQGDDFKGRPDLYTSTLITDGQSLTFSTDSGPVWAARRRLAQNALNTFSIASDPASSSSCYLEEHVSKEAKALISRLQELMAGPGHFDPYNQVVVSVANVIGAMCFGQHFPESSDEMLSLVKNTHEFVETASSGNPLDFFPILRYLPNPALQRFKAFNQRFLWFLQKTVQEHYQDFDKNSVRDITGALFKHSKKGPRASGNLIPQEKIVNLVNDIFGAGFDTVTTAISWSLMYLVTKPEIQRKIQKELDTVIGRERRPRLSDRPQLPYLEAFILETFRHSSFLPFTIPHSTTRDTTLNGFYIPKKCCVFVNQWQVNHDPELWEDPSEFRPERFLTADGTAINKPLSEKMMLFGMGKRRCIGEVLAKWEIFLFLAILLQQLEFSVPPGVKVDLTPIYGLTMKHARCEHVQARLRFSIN

In data set [7] the target is Cytochrome P450 2C19 (Homo sapiens, UniProt P33261).
Chain of Cytochrome P450 2C19 (P33261 whole entry): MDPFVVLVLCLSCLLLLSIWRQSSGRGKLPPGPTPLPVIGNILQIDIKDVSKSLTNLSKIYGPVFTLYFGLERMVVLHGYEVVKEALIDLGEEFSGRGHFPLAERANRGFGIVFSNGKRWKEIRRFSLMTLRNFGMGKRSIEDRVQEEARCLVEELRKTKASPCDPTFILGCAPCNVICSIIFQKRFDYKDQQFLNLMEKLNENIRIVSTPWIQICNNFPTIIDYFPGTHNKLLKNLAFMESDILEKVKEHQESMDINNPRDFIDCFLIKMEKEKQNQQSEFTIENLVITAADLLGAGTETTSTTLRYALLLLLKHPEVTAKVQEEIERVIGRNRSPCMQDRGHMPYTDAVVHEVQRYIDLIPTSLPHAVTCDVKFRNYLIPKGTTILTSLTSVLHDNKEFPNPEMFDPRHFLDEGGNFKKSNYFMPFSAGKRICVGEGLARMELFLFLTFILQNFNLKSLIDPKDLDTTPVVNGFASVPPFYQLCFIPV
The target in data set [8] is Voltage-gated inwardly rectifying potassium channel KCNH2 (Homo sapiens, UniProt Q12809).
Chain of Voltage-gated inwardly rectifying potassium channel KCNH2 (Q12809 whole entry): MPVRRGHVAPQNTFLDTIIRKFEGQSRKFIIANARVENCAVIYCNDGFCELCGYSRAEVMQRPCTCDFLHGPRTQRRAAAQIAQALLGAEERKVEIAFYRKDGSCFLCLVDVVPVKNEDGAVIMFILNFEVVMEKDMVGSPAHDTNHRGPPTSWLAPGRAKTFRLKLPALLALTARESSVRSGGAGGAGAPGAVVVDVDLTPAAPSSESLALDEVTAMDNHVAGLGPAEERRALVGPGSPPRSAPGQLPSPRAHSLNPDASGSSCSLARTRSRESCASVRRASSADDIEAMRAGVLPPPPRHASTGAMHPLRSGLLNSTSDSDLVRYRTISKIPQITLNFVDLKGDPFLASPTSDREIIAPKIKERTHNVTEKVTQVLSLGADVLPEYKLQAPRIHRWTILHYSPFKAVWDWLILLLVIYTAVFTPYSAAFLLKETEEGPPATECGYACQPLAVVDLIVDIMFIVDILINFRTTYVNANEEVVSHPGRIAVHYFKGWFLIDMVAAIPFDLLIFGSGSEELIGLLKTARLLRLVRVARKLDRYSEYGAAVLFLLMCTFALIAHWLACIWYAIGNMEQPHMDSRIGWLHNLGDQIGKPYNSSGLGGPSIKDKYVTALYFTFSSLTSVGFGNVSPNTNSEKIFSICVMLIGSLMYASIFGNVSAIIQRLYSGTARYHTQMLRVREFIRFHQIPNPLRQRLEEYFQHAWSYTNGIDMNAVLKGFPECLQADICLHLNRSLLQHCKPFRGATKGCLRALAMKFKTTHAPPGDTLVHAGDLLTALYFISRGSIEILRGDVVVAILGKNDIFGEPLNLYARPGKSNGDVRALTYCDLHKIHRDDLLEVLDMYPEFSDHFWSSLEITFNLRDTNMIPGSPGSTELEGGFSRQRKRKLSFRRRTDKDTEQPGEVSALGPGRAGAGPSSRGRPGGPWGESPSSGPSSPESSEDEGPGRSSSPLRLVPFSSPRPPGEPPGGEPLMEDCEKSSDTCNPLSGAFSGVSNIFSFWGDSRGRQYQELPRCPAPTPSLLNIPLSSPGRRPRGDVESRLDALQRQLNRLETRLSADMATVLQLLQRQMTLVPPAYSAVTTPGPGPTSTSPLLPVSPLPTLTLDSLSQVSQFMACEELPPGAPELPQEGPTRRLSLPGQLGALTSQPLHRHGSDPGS

Broadly, the IC50 is the concentration that gives 50% inhibition.

`CCN[C@@H]1CCC=C(c2ccc(F)cc2)[C@H]1COc1cc(F)c(S(=O)(=O)Nc2cscn2)cc1Cl.Cl`: the Vd in data set [1] came to 4.63 L/kg. The Drug metabolism result in data set [2] was “Metabolite_Detected”. Moreover, the concentration at 2 h in data set [3] amounted to 7.5 µM. Further, the “Cp(f)” value in data set [4] is 0.075 µM; in data set [5] it was 0.262 µM. For the same compound, the IC50 is above 50 µM in data set [6], above 50 µM in data set [7] and 4.4 µM in data set [8].

The values are drawn from ChEMBL document CHEMBL4177611, “Discovery of aminocyclohexene analogues as selective and orally bioavailable hNav1.7 inhibitors for analgesia” (Bioorg Med Chem Lett, 2017).
